For assay [1], the system named is NANOS3-mVenus PSCs (hiPSCs). Kind of assay: Primordial germ cell (hPGCLC) induction via TF overexpression in hiPSCs. As to conditions: for effect on NANOS3+ hPGCLC yield: doxycycline induction, monolayer, FIG. 1B. Format: cell-based, human. The source says:
FIGS. 1A-1B show identification of overexpressed transcription factors (TFs) that drive enhancement of NANOS3+ primordial germ cell yield.
A method was designed for high yield germ cell formation from stem cells in monolayer culture conditions, which is described in more detail below and in FIG. 4 with a culture media composition described in Table 1. The TFs DLX5, HHEX, or FIGLA or all three together, were integrated to iPSCs via piggyBac or lentivirus and a purified pool was selected through antibiotic addition. For germ cell induction, 2,500 TF-containing iPSCs per cm^2 were seeded in mTeSR™ medium on Corning® Matrigel® Matrix for six hours. After about 12-18 hours, Media #1 was removed and the cells were again washed, and Media #2 was added. The cells were then grown for about 24 hours, after which Media #2 was replaced by Media #3. The cells were again grown for about 24 hours, after which Media #3 was replaced by Media #4. Finally, the cells were again grown for about 24 hours, at which point primordial germ cells was harvested and isolated via FACS.
Expression plasmids containing TF cDNAs under the control of a doxycycline-inducible promoter were integrated into iPSCs using PiggyBac transposase. To perform the integration, ˜50-100 fmol of TF cDNA plasmid, ˜150-250 ng PiggyBac transposase expression plasmid, and ˜100,000-200,000 iPSCs were combined in Lonza P3 buffer and electroporated using a Lonza Nucleofector 4D. After electroporation, cells were seeded in 24-well plates in mTeSR™ Plus Medium+˜8-12 μM Y-27632. Selection with the appropriate agent (typically puromycin) commenced 48 hours after electroporation and continued for ˜3-5 days. Cells were then passaged without drug selectin for ˜3 days to allow for non-integrated plasmid loss. Finally, cells were again passaged under drug selection to generate a pure, selected integrant pool. Presence and approximate copy number of integrated TF plasmids was confirmed by qPCR on genomic DNA. For oogonia, pools of hiPSCs were utilized, not single cell selected clones. Average copy number was 8-10.
hiPSCs containing integrated TF expression plasmids were cultured in mTeSR 1 medium on Matrigel. For induction in monolayer, hiPSCs are disassociated to single cells using Accutase and seeded on Matrigel or vitronectin XF coated plates at a density of 2,500-3,000 cells per cm^2 in mTeSR™ media+˜8-10 μM Y-27632 and ˜0.5-3 μg/ml doxycycline for about 6 hours. Media was then removed and washed with dPBS and replaced with aRB27 media #1 (see components list in detailed protocol). After about 12-18 hours of induction, media #1 is removed and washed with dPBS and replaced by media #2. After about 24 hours, media #2 is removed and replaced by media #3. […]

In another assay the test system is SW480 cells. As to conditions: Huang et al.; cited from earlier work.
The target in the next assay is VEGFR2 (Homo sapiens, UniProt P35968). As to conditions: cited from earlier work.
Chain of VEGFR2 (P35968 20-1356, species assumed): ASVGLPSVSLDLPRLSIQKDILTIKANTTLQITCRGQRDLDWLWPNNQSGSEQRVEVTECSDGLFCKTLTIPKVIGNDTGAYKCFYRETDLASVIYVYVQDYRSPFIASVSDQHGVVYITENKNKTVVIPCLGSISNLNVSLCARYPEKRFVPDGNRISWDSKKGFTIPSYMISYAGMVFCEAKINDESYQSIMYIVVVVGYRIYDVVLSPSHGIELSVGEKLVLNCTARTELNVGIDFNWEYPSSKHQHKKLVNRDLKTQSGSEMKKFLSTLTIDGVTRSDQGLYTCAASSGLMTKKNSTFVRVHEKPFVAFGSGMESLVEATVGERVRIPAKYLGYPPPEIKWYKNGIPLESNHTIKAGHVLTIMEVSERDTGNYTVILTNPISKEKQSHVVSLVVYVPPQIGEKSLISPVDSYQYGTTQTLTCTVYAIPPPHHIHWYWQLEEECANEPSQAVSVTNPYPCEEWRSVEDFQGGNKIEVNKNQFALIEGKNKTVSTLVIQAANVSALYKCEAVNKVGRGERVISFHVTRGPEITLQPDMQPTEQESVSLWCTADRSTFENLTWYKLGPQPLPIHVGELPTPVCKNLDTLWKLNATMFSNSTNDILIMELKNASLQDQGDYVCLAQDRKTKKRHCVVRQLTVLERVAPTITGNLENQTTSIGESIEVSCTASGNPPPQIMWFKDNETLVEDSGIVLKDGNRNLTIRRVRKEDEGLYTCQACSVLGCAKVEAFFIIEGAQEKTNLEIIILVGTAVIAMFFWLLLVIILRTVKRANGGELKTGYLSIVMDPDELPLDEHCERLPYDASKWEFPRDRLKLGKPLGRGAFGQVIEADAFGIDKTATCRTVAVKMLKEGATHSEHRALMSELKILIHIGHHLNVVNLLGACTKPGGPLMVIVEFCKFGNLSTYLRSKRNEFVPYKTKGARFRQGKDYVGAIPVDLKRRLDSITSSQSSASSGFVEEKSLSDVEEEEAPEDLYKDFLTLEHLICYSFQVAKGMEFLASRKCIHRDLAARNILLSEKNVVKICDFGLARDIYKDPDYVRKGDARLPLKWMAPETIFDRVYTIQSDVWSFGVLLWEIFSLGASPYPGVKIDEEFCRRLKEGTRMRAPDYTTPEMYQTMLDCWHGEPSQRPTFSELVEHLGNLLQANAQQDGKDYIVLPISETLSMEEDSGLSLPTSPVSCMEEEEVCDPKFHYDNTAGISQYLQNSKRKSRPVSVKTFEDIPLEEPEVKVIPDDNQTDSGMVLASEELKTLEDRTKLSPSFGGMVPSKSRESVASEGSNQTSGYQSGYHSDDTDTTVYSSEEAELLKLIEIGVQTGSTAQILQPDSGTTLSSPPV
Another assay relates to PDGFR. As to conditions: cited from earlier work.
The target of the next assay is c-Src (Homo sapiens, UniProt P12931). As to conditions: cited from earlier work.
Chain of c-Src (P12931 whole entry, species assumed): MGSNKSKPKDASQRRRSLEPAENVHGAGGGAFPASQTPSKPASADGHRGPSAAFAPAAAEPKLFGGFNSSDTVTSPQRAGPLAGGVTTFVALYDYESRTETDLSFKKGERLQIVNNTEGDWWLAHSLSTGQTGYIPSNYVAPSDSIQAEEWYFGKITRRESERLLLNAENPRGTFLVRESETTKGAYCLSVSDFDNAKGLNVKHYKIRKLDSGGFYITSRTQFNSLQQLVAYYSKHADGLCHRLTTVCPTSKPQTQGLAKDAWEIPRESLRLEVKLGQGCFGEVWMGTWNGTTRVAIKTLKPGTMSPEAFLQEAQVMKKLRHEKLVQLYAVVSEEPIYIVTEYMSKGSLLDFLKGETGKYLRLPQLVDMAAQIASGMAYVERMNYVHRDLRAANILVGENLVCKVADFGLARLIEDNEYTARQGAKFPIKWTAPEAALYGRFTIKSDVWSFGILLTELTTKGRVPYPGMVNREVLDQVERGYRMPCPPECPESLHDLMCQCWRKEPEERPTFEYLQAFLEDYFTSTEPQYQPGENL
Another assay has as its system MEK. As to conditions: cited from earlier work.
A further assay deals with PKC. As to conditions: cited from earlier work.

Results on 5 molecules are retold here after patent US20250207091A1, “METHODS AND COMPOSITIONS FOR PRODUCING PRIMORDIAL GERM CELL-LIKE CELLS” (President and Fellows of Harvard College, priority 2022, published 2025).

Regarding “FIGLA: Folliculogenesis Specific BHLH Transcription Factor (SEQ ID NO: 1), overexpressed in PSCs from a doxycycline-inducible polynucleotide”, the “effect on NANOS3+ hPGCLC yield” value in assay [1] is “enhanced”.
As for “DLX5: Distal-Less Homeobox 5 transcription factor (SEQ ID NO: 2), overexpressed in PSCs from a doxycycline-inducible polynucleotide”, the “germ cell formation rescue compared to wildtype” value in assay [1] (absence of BMP4) is 50%. Further, the “effect on NANOS3+ hPGCLC yield” value in assay [1] is reported as “enhanced”. In addition, the “activity (hPGCLC yield) retained without hBMP4” value in assay [1] (without hBMP4, compared to normal condition, FIG. 3A) is reported as 40%.
Consider `Oc1nc(-c2ccc(C(F)(F)F)cc2)nc2c1CSCC2` [XAV939], for which, in the assay on SW480 cells, the “effect on β-catenin” value is recorded as “promotes the degradation of β-catenin”.
In the case of `CCN(CC)CCCCNc1ncc2cc(-c3cc(OC)cc(OC)c3)c(NC(=O)NC(C)(C)C)nc2n1` [PD 173074], the IC50 (as a rule, the point on the concentration scale where inhibition reaches its midpoint) is about 0.1 µM on VEGFR2; about 17.6 µM in the assay on PDGFR; about 19.8 µM on c-Src; over 50 µM in the assay with MEK; over 50 µM in the assay on PKC.

B1: HHEX: Hematopoietically Expressed Homeobox transcription factor (SEQ ID NO: 3), overexpressed in PSCs from a doxycycline-inducible polynucleotide (protein)
chain: MQYPHPGPAAGAVGVPLYAPTPLLQPAHPTPFYIEDILGRGPAAPTPAPTLPSPNSSFTSLVSPYRTPVYEPTPIHPAFSHHSAAALAAAYGPGGFGGPLYPFPRTVNDYTHALLRHDPLGKPLLWSPFLQRPLHKRKGGQVRFSNDQTIELEKKFETQKYLSPPERKRLAKMLQLSERQVKTWFQNRRAKWRRLKQENPQSNKKEELESLDSSCDQRQDLPSEQNKGASLDSSQCSPSPASQEDLESEISEDSDQEVDIEGDKSYFNAG
As for B1, the “effect on NANOS3+ hPGCLC yield” value in assay [1] is given as “enhanced”.
